Measurements published in patent US20080026054A1, “Novel anelgesic combination” (NECTID INC., priority 2007, published 2008).
Structures can show the parent of a compound that is named as a salt.

Test system: patients suffering from Chronic non-cancer pain (CNCP)
Test: Human clinical trial, pain scored by visual analogue scale (VAS)
Format: in vivo
Conditions: mean ± SD, scale 0-100 mm
From the text: The present inventions disclosed in this specification further include a method of treating pain and pain related conditions. This was established using a well controlled human clinical trial. The method of treating pain and pain related conditions by using a combination disclosed by this invention has been established in a long-term controlled clinical evaluation. A typical study determined the efficacy of tramadol and meloxicam as monotherapy and a combination of meloxicam and a slow release tramadol for the treatment of pain and pain related conditions
• Tramadol hydrochloride: Generic Tramadol Hydrochloride tablets 50 mg, • Meloxicam: Generic Meloxicam tablets 7.5 mg • Slow Release Tramadol Hydrochloride: a) Example 1, b) Ultram ER 100 mg
The administered dosage comprised either tramadol hydrochloride (100 mg) or meloxicam 7.5 mg or a combination of meloxicam (7.5 mg) and slow release tramadol hydrochloride (100 mg) selected from Treatments D or E or a combination of meloxicam 5 mg and a slow release tramadol 100 mg (Treatment F) was administered once a day to the patients in a long-term clinical trial.
140 patients were used in a clinical trial were suffering from Chronic non-cancer pain (CNCP), defined as pain for longer than 6 months, including neuropathic pain, osteoarthritis, rheumatoid arthritis, fibromyalgia, and back and musculoskeletal pain were included in the clinical trial.
Those patients with migraines, dental pain, abdominal pains (from chronic pancreatitis, kidney stones, etc.) and ischemic pain from vascular disease were excluded because they are usually not classified as CNCP. Patients with history of addiction (alcohol or drugs) were excluded from the trials
Randomization was performed with computer-generated random numbers in blocks of 10. Randomization codes of the monotherapy or combination therapy treatments were placed in sequentially numbered, opaque, sealed envelopes in the biopsy center. When a patient was recruited and consented, the next numbered envelope was opened by the operator, who had no knowledge of the randomization code before the treatment
Pain was assessed using a visual analogue scale (VAS) graded from 0-100 mm. Pain scoring was performed every three hours after drug administration for a total of 24 hours.
The patients were taught with a standard method by the physician how to use a VAS scoring from 0 to 100 mm to grade the intensity of pain experienced during the treatment. On that scale, the left endpoint, 0, was defined as no pain and the right endpoint 100, as the worst pain the patient could imagine. There were no further marks on the line. The intensity of pain was indicated by the distance in millimeters from the left end. Patients were asked to grade the pain intensity immediately after the administration of drugs and every three hour after for 24 hours by drawing a vertical line over each VAS line. The doctors who prescribed the medicines obtained all the VAS forms for that specific patient.
Data are expressed as means ±SD. Differences in VAS were analyzed with use of the unpaired Student t test and differences in pain score reductions between the two groups were analyzed with use of the Mann-Whitney U test for the median difference. Similar statistical tests were used for between group comparisons of other outcome variables as appropriate. A two tailed P value of less than. […] SAS software was used for the statistical analysis.
We considered that a clinically significant benefit of using meloxicam and slow release tramadol would be a reduction in the pain score (VAS) of at least 15% compared to the monotherapy with either tramadol hydrochloride or naproxen or meloxicam or placebo. Alternatively, the dose reduction of at least 15% of either NSAID or tramadol when used as combination over the monotherapy as significant benefit

| Compound | Pain scored by VAS (VAS time 0 hours) [mm] | Pain scored by VAS (VAS time 3 hours) [mm] | Pain scored by VAS (VAS time 6 hours) [mm] | Pain scored by VAS (VAS time 9 hours) [mm] | Pain scored by VAS (VAS time 12 hours) [mm] | Pain scored by VAS (VAS time 15 hours) [mm] | Pain scored by VAS (VAS time 18 hours) [mm] | Pain scored by VAS (VAS time 21 hours) [mm] | Pain scored by VAS (VAS time 24 hours) [mm] |
| --- | --- | --- | --- | --- | --- | --- | --- | --- | --- |
| COc1cccc([C@@]2(O)CCCC[C@@H]2CN(C)C)c1 (racemic) [Treatment A, (±) cis-2-[(dimethylamino)methyl]-1-(3-methoxyphenyl)cyclo-hexanol hydrochloride] | 30.3 ± 21.2 | 22.3 ± 20.1 | 18.3 ± 20.6 | 15.3 ± 17.2 | 12.3 ± 21.2 | 14.3 ± 19.2 | 15.3 ± 21.3 | 14.3 ± 19.2 | 14.3 ± 19.2 |
| Cc1cnc(N/C(O)=C2/C(=O)c3ccccc3S(=O)(=O)N2C)s1 [Treatment B, 4-hydroxy-2-methyl-N-(5-methyl-2-thiazolyl)-2H-1,2-benzothiazine-3-carboxamide-1,1-dioxide] | 34 ± 19.1 | 18 ± 19.1 | 14 ± 21.1 | 14 ± 20.3 | 15 ± 18.6 | 17 ± 21.5 | 19 ± 19.7 | 20 ± 18.3 | 25 ± 20.9 |
